This assay deals with P388 leukemia ip, CD2F1 mice, survival T/C. Description: NCI In Vivo Anticancer Drug Screen. Data for tumor model P388 Leukemia (intraperitoneal) in CD2F1 (CDF1) mice. The note with it: endpoint: median survival time, higher = longer survival. In short, it runs like this: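 Mice carrying the transplanted tumor received test compound or vehicle. Survival was recorded in each group, and the value is the treated-group measurement divided by that of the vehicle-treated control group.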

Where [1] appears, read: dose: 50.0 mg/kg/injection, schedule: Q01DX009 (ip), vehicle: Klucel (hydroxypropylcellulose) (HPC).
[2] abbreviates: dose: 25.0 mg/kg/injection, schedule: Q01DX009 (ip), vehicle: saline with Tween-80.
[3] abbreviates: dose: 50.0 mg/kg/injection, schedule: Q01DX009 (ip), vehicle: saline with Tween-80.
Setting [4] is: dose: 100.0 mg/kg/injection, schedule: Q01DX009 (ip), vehicle: saline with Tween-80.
The mark [5] stands for this setting: dose: 200.0 mg/kg/injection, schedule: Q01DX009 (ip), vehicle: saline with Tween-80.
[6] abbreviates: dose: 120.0 mg/kg/injection, schedule: Q01DX005 (ip), vehicle: Klucel (hydroxypropylcellulose) (HPC).

“And” between values parts separate entries of the source, which are not always exact repeats. Equal values may be shown once. Toxic doses and inconclusive results are not listed.

As for `O=C1c2ccccc2C(O)(C(=O)O)C1(O)CC=C(Cl)Cl` (centres undefined), the T/C (dose: 12.5 mg/kg/injection, schedule: Q01DX009 (ip), vehicle: distilled water + Tween-80) is 103 % of control; the T/C (dose: 25.0 mg/kg/injection, schedule: Q01DX009 (ip), vehicle: distilled water + Tween-80) is 99 % of control; the T/C (dose: 50.0 mg/kg/injection, schedule: Q01DX009 (ip), vehicle: distilled water + Tween-80) was 91 % of control; the T/C (dose: 100.0 mg/kg/injection, schedule: Q01DX009 (ip), vehicle: distilled water + Tween-80) is 95 % of control; the T/C (dose: 200.0 mg/kg/injection, schedule: Q01DX009 (ip), vehicle: distilled water + Tween-80) was 91 % of control.

On to `C=C[Se](=C(C(=O)c1ccccc1)C(=O)c1ccccc1)c1ccccc1` (centres undefined), for which the T/C was 96 % of control (dose: 6.25 mg/kg/injection, schedule: Q01DX009 (ip), vehicle: saline); 103 % of control (dose: 12.5 mg/kg/injection, schedule: Q01DX009 (ip), vehicle: saline); 99 % of control (dose: 25.0 mg/kg/injection, schedule: Q01DX009 (ip), vehicle: saline); 107 % of control (dose: 50.0 mg/kg/injection, schedule: Q01DX009 (ip), vehicle: saline); 113 % of control (dose: 100.0 mg/kg/injection, schedule: Q01DX009 (ip), vehicle: saline); 113 % of control (dose: 200.0 mg/kg/injection, schedule: Q01DX009 (ip), vehicle: saline).

As to `CCCCCCCCCCCC(O)CCCC(O)CC(O)CC(O)CC1CC=CC(=O)O1` (centres undefined), the T/C (dose: 12.5 mg/kg/injection, schedule: Q01DX009 (ip), vehicle: Klucel (hydroxypropylcellulose) (HPC)) is 106 % of control; the T/C (dose: 25.0 mg/kg/injection, schedule: Q01DX009 (ip), vehicle: Klucel (hydroxypropylcellulose) (HPC)) was 103 % of control; the T/C under setting [1] was 112 % of control.

Consider `CC(C)(C)N1CC1CNC(=O)C(=O)NCC1CN1C(C)(C)C` (centres undefined), for which the T/C runs as follows: (dose: 3.12 mg/kg/injection, schedule: Q01DX009 (ip), vehicle: saline with Tween-80) 165 % of control; (dose: 6.25 mg/kg/injection, schedule: Q01DX009 (ip), vehicle: saline with Tween-80) 194 % of control and 203 % of control; (dose: 12.5 mg/kg/injection, schedule: Q01DX009 (ip), vehicle: saline with Tween-80) 256 % of control and 277 % of control; under setting [2], 177 % of control.

Take `COc1cc(/C=C/c2cc(OC)c(OC)c(OC)c2)oc(=O)c1`: the T/C is 98 % of control under setting [1]; 104 % of control (dose: 100.0 mg/kg/injection, schedule: Q01DX009 (ip), vehicle: Klucel (hydroxypropylcellulose) (HPC)); 99 % of control (dose: 200.0 mg/kg/injection, schedule: Q01DX009 (ip), vehicle: Klucel (hydroxypropylcellulose) (HPC)).

`Cc1ccc(CO)c2ccccc12`: the T/C by setting is: under setting [2], 96 % of control; under setting [3], 107 % of control; under setting [4], 96 % of control; under setting [5], 96 % of control.

In the case of `CN(Cc1ccc(Nc2ccccc2)cc1)C1CCCCC1`, the T/C reads like this: (dose: 50.0 mg/kg/injection, schedule: Q01DX009 (ip), vehicle: saline + Tween-80 + alcohol) 103 % of control and 106 % of control; (dose: 100.0 mg/kg/injection, schedule: Q01DX009 (ip), vehicle: saline + Tween-80 + alcohol) 110 % of control and 111 % of control; (dose: 200.0 mg/kg/injection, schedule: Q01DX009 (ip), vehicle: saline + Tween-80 + alcohol) 109 % of control and 112 % of control; (dose: 400.0 mg/kg/injection, schedule: Q01DX009 (ip), vehicle: saline + Tween-80 + alcohol) 114 % of control.

As for `Cc1cc2nnn(-c3ncccc3[N+](=O)[O-])c2cc1C`, the T/C was 104 % of control (dose: 60.0 mg/kg/injection, schedule: Q01DX005 (ip), vehicle: saline with Tween-80); 101 % of control (dose: 120.0 mg/kg/injection, schedule: Q01DX005 (ip), vehicle: saline with Tween-80); 101 % of control (dose: 240.0 mg/kg/injection, schedule: Q01DX005 (ip), vehicle: saline with Tween-80).

As for `CCc1ccnc(N=C2N=C(Nc3cc(CC)ccn3)c3ccccc32)c1`, the T/C runs as follows: under setting [3], 92 % of control; under setting [4], 97 % of control; under setting [5], 97 % of control.

Consider `CC1(C)COC(CCCCCO)=N1`, for which the T/C is, setting by setting: under setting [3], 103 % of control; under setting [4], 97 % of control; under setting [5], 92 % of control.

For `Cc1cc(=O)n2c(n1)sc1cc(Cl)ccc12`, the T/C by setting is: (dose: 18.75 mg/kg/injection, schedule: Q04DX002 (ip), vehicle: Klucel (hydroxypropylcellulose) (HPC)) 102 % of control; (dose: 37.5 mg/kg/injection, schedule: Q04DX002 (ip), vehicle: Klucel (hydroxypropylcellulose) (HPC)) 93 % of control; (dose: 75.0 mg/kg/injection, schedule: Q04DX002 (ip), vehicle: Klucel (hydroxypropylcellulose) (HPC)) 101 % of control.

Regarding `CC(=O)N/N=C/C(C)(C)C(C)(C)/C=N/NC(C)=O`, the T/C under setting [6] was 153 % of control.

For `O=P1(C(Cl)(Cl)Cl)NNP(=O)(C(Cl)(Cl)Cl)NN1` (centres undefined), the T/C by setting is: (dose: 60.0 mg/kg/injection, schedule: Q01DX005 (ip), vehicle: Klucel (hydroxypropylcellulose) (HPC)) 104 % of control; under setting [6], 101 % of control; (dose: 240.0 mg/kg/injection, schedule: Q01DX005 (ip), vehicle: Klucel (hydroxypropylcellulose) (HPC)) 107 % of control.

`CN(C)C(CC(=O)O)C(=O)O` (centres undefined): the T/C (dose: 50.0 mg/kg/injection, schedule: Q01DX009 (ip), vehicle: water) was 108 % of control; the T/C (dose: 100.0 mg/kg/injection, schedule: Q01DX009 (ip), vehicle: water) is 98 % of control; the T/C (dose: 200.0 mg/kg/injection, schedule: Q01DX009 (ip), vehicle: water) is 99 % of control.

With `NC(Cc1cc(I)c(Oc2cc(I)c(O)c(I)c2)c(I)c1)C(=O)O` (centres undefined), the T/C is, setting by setting: (dose: 0.25 mg/kg/injection, schedule: Q01DX009 (ip), vehicle: saline) 99 % of control; (dose: 0.5 mg/kg/injection, schedule: Q01DX009 (ip), vehicle: saline) 103 % of control; (dose: 1.0 mg/kg/injection, schedule: Q01DX009 (ip), vehicle: saline) 99 % of control; (dose: 2.0 mg/kg/injection, schedule: Q01DX009 (ip), vehicle: saline) 94 % of control; (dose: 4.0 mg/kg/injection, schedule: Q01DX009 (ip), vehicle: saline) 88 % of control.

`Nc1ccccc1N1CCNCC1`: the T/C (dose: 12.5 mg/kg/injection, schedule: Q04DX003 (ip), vehicle: saline) is 100 % of control; the T/C (dose: 25.0 mg/kg/injection, schedule: Q04DX003 (ip), vehicle: saline) was 100 % of control; the T/C (dose: 50.0 mg/kg/injection, schedule: Q04DX003 (ip), vehicle: saline) is 98 % of control and 101 % of control.

For `O=C1CCCC2C3CCCN4CCCC(CN12)C34` (centres undefined), the T/C runs as follows: (dose: 3.12 mg/kg/injection, schedule: Q01DX007 (ip), vehicle: carboxymethylcellulose (CMC)) 100 % of control; (dose: 5.0 mg/kg/injection, schedule: Q01DX009 (ip), vehicle: saline) 98 % of control; (dose: 6.2 mg/kg/injection, schedule: Q01DX007 (ip), vehicle: carboxymethylcellulose (CMC)) 100 % of control; (dose: 6.25 mg/kg/injection, schedule: Q01DX007 (ip), vehicle: carboxymethylcellulose (CMC)) 100 % of control; (dose: 10.0 mg/kg/injection, schedule: Q01DX009 (ip), vehicle: saline) 100 % of control and 94 % of control; (dose: 12.5 mg/kg/injection, schedule: Q01DX007 (ip), vehicle: carboxymethylcellulose (CMC)) 91 % of control. For the same compound, the T/C was 100 % of control and 110 % of control and 95 % of control (dose: 20.0 mg/kg/injection, schedule: Q01DX009 (ip), vehicle: saline); 100 % of control (dose: 23.0 mg/kg/injection, schedule: Q01DX007 (ip), vehicle: carboxymethylcellulose (CMC)); 91 % of control (dose: 25.0 mg/kg/injection, schedule: Q01DX007 (ip), vehicle: carboxymethylcellulose (CMC)); 102 % of control and 117 % of control and 95 % of control (dose: 40.0 mg/kg/injection, schedule: Q01DX009 (ip), vehicle: saline); 98 % of control and 110 % of control and 122 % of control (dose: 80.0 mg/kg/injection, schedule: Q01DX009 (ip), vehicle: saline); 102 % of control and 119 % of control (dose: 160.0 mg/kg/injection, schedule: Q01DX009 (ip), vehicle: saline).

Take `CC(=O)N1OC2(C)c3ccccc3C1(C)c1ccccc12`: the T/C was 100 % of control under setting [3], 94 % of control under setting [4] and 92 % of control under setting [5].

Regarding `CCOC(=O)CCc1cnc[nH]1`, the T/C (dose: 60.0 mg/kg/injection, schedule: Q01DX005 (ip), vehicle: saline) is 108 % of control; the T/C (dose: 120.0 mg/kg/injection, schedule: Q01DX005 (ip), vehicle: saline) was 106 % of control; the T/C (dose: 240.0 mg/kg/injection, schedule: Q01DX005 (ip), vehicle: saline) was 98 % of control.

(Values after PubChem BioAssay AID330 (DTP/NCI, 2004).)
